According to article PMC6982876, “Synthesis of Novel Benzodifuranyl; 1,3,5-Triazines; 1,3,5-Oxadiazepines; and Thiazolopyrimidines Derived from Visnaginone and Khellinone as Anti-Inflammatory and Analgesic Agents” (Molecules, 2020):
Marks after values point to notes of the source that are not given here.

What was measured:
[1] = system: carrageenan-induced paw edema in rats; assay: Carrageenan-induced paw edema (anti-inflammatory activity); type: in vivo; settings: 10 mg/kg oral; for % Change in Paw Height (Mean ± SEM): n = 5
Description: Albino rats (150–180 g) were used. The rats were divided into 11 experimental groups of five rats each. One hour after oral administration of the compounds (10 mg/kg), 0.1 mL of 1% carrageenan solution was injected in the left hind paw of each animal. Rat paw volumes were measured with a digital caliber plethysmometer (UGO Basile, Varese, Italy) used to measure inflammation height at 0, 1, 2, and 3 h after carrageenan injection. The percentage increase in inflammation in the left hind paw, in comparison to the uninjected right hind paw, was determined, calculated, and expressed as the amount of inflammation. […] The anti-inflammatory activity of the selected analgesic compounds after 3 h was expressed as percentage inhibition of edema, which was calculated according to the following equation: (2) Inhibition of edema (%) =Vcont−Vtest/Vcont×100* where V cont is the edema volume in the control group, and V test is the edema volume in the group of the screened compound.

ovine COX-1 = biological target: T1, ovine COX-1 (Ovis aries, UniProt P05979); assay: In vitro COX inhibitor screening assay (EIA kit, Cayman), COX-1; type: biochemical; settings: mean of two determinations, enzyme kit, read-out: COX1 IC50
T1 construct: purchased Cayman Chemical, Ann Arbor, MI, USA 560131
T1 sequence (P05979 25-600): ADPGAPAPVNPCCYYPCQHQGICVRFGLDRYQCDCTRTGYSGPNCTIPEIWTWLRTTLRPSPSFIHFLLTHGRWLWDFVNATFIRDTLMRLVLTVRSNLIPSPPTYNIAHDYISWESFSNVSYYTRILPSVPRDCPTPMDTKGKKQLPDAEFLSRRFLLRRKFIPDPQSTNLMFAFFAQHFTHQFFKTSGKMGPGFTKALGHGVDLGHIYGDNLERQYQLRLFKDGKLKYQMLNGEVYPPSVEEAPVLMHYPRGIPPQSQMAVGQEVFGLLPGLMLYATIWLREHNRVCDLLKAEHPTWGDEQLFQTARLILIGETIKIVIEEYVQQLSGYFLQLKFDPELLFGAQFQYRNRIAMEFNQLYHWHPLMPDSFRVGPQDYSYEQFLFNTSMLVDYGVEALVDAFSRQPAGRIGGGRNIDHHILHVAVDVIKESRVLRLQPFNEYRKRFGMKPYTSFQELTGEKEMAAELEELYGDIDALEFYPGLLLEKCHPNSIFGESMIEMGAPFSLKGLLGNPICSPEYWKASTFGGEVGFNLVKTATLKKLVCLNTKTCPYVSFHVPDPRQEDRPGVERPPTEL
Description: (§1) Furthermore, the selectivity index for COX-2 (COX-1 IC50 / COX-2 IC50) was calculated for the compounds.

human recombinant COX-2 = biological target: T2, human recombinant COX-2 (Homo sapiens, UniProt P35354); assay: In vitro COX inhibitor screening assay (EIA kit, Cayman), COX-2; type: biochemical; settings: for COX2 (SI) selectivity index: COX-1 IC50 / COX-2 IC50; for IC50: COX-2, mean of two determinations, enzyme kit, read-out: COX2 IC50
T2 construct: purchased Cayman Chemical, Ann Arbor, MI, USA 560131
T2 sequence (P35354 18-604): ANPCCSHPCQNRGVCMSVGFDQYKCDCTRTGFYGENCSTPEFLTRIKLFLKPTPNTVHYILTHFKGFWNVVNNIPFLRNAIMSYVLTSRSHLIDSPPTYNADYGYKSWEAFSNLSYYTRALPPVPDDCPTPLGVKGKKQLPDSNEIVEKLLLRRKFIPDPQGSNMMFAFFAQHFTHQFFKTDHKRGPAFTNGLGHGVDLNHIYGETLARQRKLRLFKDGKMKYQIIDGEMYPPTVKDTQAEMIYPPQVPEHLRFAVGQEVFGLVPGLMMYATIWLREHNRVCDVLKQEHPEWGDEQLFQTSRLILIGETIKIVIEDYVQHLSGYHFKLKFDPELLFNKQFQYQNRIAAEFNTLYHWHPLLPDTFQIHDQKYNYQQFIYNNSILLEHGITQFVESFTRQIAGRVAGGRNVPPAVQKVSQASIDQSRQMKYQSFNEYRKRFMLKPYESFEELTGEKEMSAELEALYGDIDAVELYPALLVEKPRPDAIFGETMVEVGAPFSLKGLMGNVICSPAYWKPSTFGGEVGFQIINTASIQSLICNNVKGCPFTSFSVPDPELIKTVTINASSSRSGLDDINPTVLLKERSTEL
Description: as §1

[2] = system: acetic acid-induced writhing in mice; assay: Acetic acid-induced writhing test (analgesic activity); type: in vivo; settings: 10 mg/kg p.o., n = 5; for Analgesic Activity (% protection): writhing test; for Writhing Number in 20 min (Mean ± SEM): acetic acid 1 h after dosing
Description: The analgesic activity of the compounds was performed using the writhing test as described by Gawade et al.. Mice weight ranged from 25 to 30 g. Then, mice were divided into 18 different groups, each containing five animals. The animals fasted for 8 h before the experiment. Administration of the compounds (10 mg/kg, p.o.) was performed orally. Equal doses of diclofenac as the reference drug and saline as a negative control were also administrated orally. Writhing was induced one hour after compound administration by using 0.1 mL of 1% glacial acetic acid at a volume of 0.1 mL/10 g body weight. The number of writhing responses (stretching of the abdomen, extension of hind limbs, twisting of the trunk, and elongation of the body) observed was counted for 20 min. The protection percentile against acetic acid-induced writhing was calculated according to the following formula: (1) Analgesic activity (%) =n−n′/n×100* where n is the mean number of writhes of the control group, and n’ is the mean number of writhes of the tested compound group.

SMILES	% Change in Paw Height (Mean ± SEM) ([1]; 2 hr after carrageenan)	% Change in Paw Height (Mean ± SEM) ([1]; 3 hr after carrageenan)	IC50 (ovine COX-1) [µM]	COX2 (SI) selectivity index (human recombinant COX-2)	IC50 (human recombinant COX-2) [µM]	melting point [°C]	Analgesic Activity (% protection) [2] [%]	% Change in Paw Height (Mean ± SEM) ([1]; 1 hr after carrageenan)	Anti-Inflammatory Activity (% Inhibition of Edema) ([1]; 3 hr after carrageenan) [%]	Writhing Number in 20 min (Mean ± SEM) [2]
COc1c(C(C)=O)c(OCC(=O)Nc2cc(=O)[nH]c(=S)[nH]2)cc2occc12 [Compound 4a, 2-((5-acetyl-4-methoxybenzofuran-6-yl)oxy)-N-(6-oxo-2-thioxo-1,2,3,6-tetrahydropyrimidin-4-yl) acetamide]	0.40 ± 0.02 ^a %	0.49 ± 0.02 ^a %	18.8	41	0.46	170 to 172	18 ± 1.20			
COc1c2occc2c(OC)c2c(C)c(C(=O)Nc3cc(=O)n4c(n3)SCC4=O)oc12 [Compound 7b, N-(3,5-dioxo-2,3-dihydro-5H-thiazolo[3,2-a]pyrimidin-7-yl)-4,8-dimethoxy-3-methylbenzo [1,2-b:5,4-b`]difuran-2-carboxamide]	0.25 ± 0.01 ^a %	0.29 ± 0.01 ^a %	7.18	80	0.09	327 to 329	35 ± 1.14	0.30 ± 0.02 ^a %	52	
COc1c2ccoc2cc2oc(C(Cl)=Nc3cc(Cl)nc(=S)[nH]3)c(C)c12 [Compound 8a, N-(6-chloro-2-thioxo-2,3-dihydropyrimidin-4-yl)-4-methoxy-3-methylbenzo [1,2-b: 5,4-b`] difuran-2-carbimidoyl chloride]	0.30 ± 0.03 ^a %	0.37 ± 0.02 ^a %	17	61	0.28	337 to 339	27 ± 0.60	0.37 ± 0.02 ^a %	40	48 ± 1.9 ^a,b
COc1c(C(C)=O)c(OCC(=O)Nc2cc(=O)[nH]c(=S)[nH]2)c(OC)c2occc12 [Compound 4b, 2-((5-acetyl-4,7-dimethoxybenzofuran-6-yl)oxy)-N-(6-oxo-2-thioxo-1,2,3,6-tetrahydropyrimidin-4-yl) acetamide]	0.38 ± 0.03 ^a %	0.47 ± 0.01 ^a %	18.5	45	0.411	186 to 188	19 ± 1.30	0.47 ± 0.04 ^a %	26	56 ± 1.2 ^a,b
COc1c2occc2c(OC)c2c(C)c(C(Cl)=Nc3cc(Cl)nc(=S)[nH]3)oc12 [Compound 8b, N-(6-chloro-2-thioxo-2,3-dihydropyrimidin-4-yl)-4,8-dimethoxy-3-methylbenzo [1,2-b: 5,4-b`] difuran-2-carbimidoyl chloride]	0.29 ± 0.02 ^a %	0.35 ± 0.02 ^a %	15.5	63	0.245	347 to 349	28 ± 0.95	0.36 ± 0.01 ^a %	42	47 ± 2.2 ^a,b
COc1c2ccoc2cc2oc(C(=O)Nc3cc(=O)[nH]c(=S)[nH]3)c(C)c12 [Compound 5a, 4-methoxy-3-methyl-N-(6-oxo-2-thioxo-1,2,3,6-tetrahydropyrimidin-4-yl) benzo [1,2-b: 5,4-b`] difuran-2-carboxamide]	0.36 ± 0.02 ^a %	0.46 ± 0.02 ^a %	18.1	48	0.375	245 to 247	21 ± 2.10	0.45 ± 0.03 ^a %	28	54 ± 1.6 ^a,b
COc1c2occc2c(OC)c2c(C)c(C(=O)Nc3cc(=O)[nH]c(SCC(=O)O)n3)oc12 [Compound 6b, 2-((4-(4,8-dimethoxy-3-methylbenzo [1,2-b: 5,4-b`]difuran-2-carboxamido)-6-oxo-1,6-dihydropyrimidin-2-yl)thio) acetic acid]	0.31 ± 0.04 ^a %	0.39 ± 0.01 ^a %	17.1	55	0.311	293 to 295	26 ± 0.80	0.38 ± 0.03 ^a %	38	49 ± 1.2 ^a,b
COc1c2occc2c(OC)c2c(C)c(C(=O)Nc3cc(=O)[nH]c(=S)[nH]3)oc12 [Compound 5b, 4,8-dimethoxy-3-methyl-N-(6-oxo-2-thioxo-1,2,3,6-tetrahydropyrimidin-4-yl) benzo [1,2-b: 5,4-b`] difuran-2-carboxamide]	0.34 ± 0.01 ^a %	0.44 ± 0.03 ^a %	17.9	50	0.36	266 to 268	23 ± 0.70	0.42 ± 0.04 ^a %	30	52 ± 1.4 ^a,b
